Values quoted from earlier work as cited in patent US8466103B2, “Exendin polypeptide linked to biotin, method for the preparation thereof and pharmaceutical composition comprising the same” (B&L Delipharm, Corp., priority 2008, dated 2013).

Biological target: Na-dependent multivitamin transport system
Conditions: small intestines; read-out: Affinity constant of the transport system for biotin; cited from earlier work

## O=C(O)CCCC[C@@H]1SC[C@@H]2NC(=O)N[C@@H]21 [biotin]
  Kd: ~2.6 nM
